In US20220089710A1, “Method of Treating Signs and Symptoms of Osteoarthritis” (Pfizer Inc., priority 2019, published 2022):
Read-outs that look alike come from different tables or passages of the source.

Legend:
[1] = tested on: patients with moderate to severe OA of the hip or knee; test: Example 1: adjudicated joint safety events (RPOA, TJR); format: in vivo, human
Method: Investigators performed musculoskeletal examinations at each study visit. Investigators evaluated patients reporting increased severe or persistent pain via eDiary lasting […] to determine if additional follow-up was needed. Post-baseline x-rays (scheduled or for cause) were assessed by the central reader for possible or probable RPOA, subchondral insufficiency fracture, primary osteonecrosis, or pathologic fracture. If warranted, magnetic resonance imaging scans were performed and/or patients were referred to an orthopedic surgeon. All cases of possible or probable joint safety events or cases of TJR for any reason were adjudicated by a blinded Adjudication Committee consisting of orthopedic surgery, rheumatology, orthopedic pathology, and musculoskeletal radiology experts.

[2] = tested on: patients with moderate to severe OA of the hip or knee; test: Example 1: randomized, double-blind, placebo-controlled dose-titration study of SC tanezumab (16-week treatment), efficacy: WOMAC Pain, WOMAC Physical Function, PGA-OA, average daily index joint pain; format: in vivo, human; conditions: for PGA-OA: Diff of LS Means vs placebo / PGA-OA: LS Mean change from Baseline / WOMAC Pain: Diff of LS Means vs placebo / WOMAC Pain: LS Mean change from Baseline / WOMAC Physical Function: Diff of LS Means vs placebo / WOMAC Physical Function: LS Mean change from Baseline / proportion of patients with ≥50% reduction from baseline in WOMAC Pain subscale: Week 16
Method: All patients provided written informed consent before participating. The study was conducted in compliance with the Declaration of Helsinki and all International Conference on Harmonisation Good Clinical Practice guidelines.
The co-primary efficacy endpoints were change from baseline to week 16 in WOMAC Pain subscale, WOMAC Physical Function subscale, and PGA-OA (Theiler et al., Osteoarthritis Cartilage. 2002; 10(6):479-481; Stengaard-Pederson et al., Rheumatology (Oxford). 2004; 43(5):592-595). WOMAC Pain and WOMAC Physical Function subscales measured symptoms within the last 48 hours; both used an 11-point numeric rating scale where higher scores indicated higher levels of pain or worse function. For PGA-OA, patients answered the question “Considering all the ways your osteoarthritis in your hip/knee affects you, how are you doing today?” on a scale from 1=“very good” to 5=“very poor.”
A key secondary efficacy endpoint was the WOMAC Pain […], responder rate at week 16. Other secondary efficacy endpoints were WOMAC Pain responder rates (≥30%, ≤70%, and ≤90%) at week 16 and patient-reported rescue medication use during weeks 2, 4, 8, 12, and 16.
Individual patient transitions in WOMAC Pain response categories (non-response defined as <30% reduction in WOMAC Pain; moderate response as ≥30%, but <50% reduction in WOMAC Pain; and substantial response as […], reduction from baseline in WOMAC Pain) between adjacent time points through the study (from week 4 to week 8, from week 8 to week 12, and from week 12 to week 16), were investigated using contingency tables. These analyses were conducted post hoc. Consistent non-responders were those patients with less than a 30% reduction from baseline in WOMAC Pain at two consecutive time points. Consistent moderate responders were those patients with at least a 30% but less than 50% reduction from baseline in WOMAC Pain at two consecutive time points. Consistent substantial responders were those patients who maintained at least a 50% reduction from baseline in WOMAC Pain at two consecutive time points.
Co-primary endpoints were analyzed in the intent-to-treat population (all patients who received ≥1 study medication dose) using an analysis of covariance model, with terms for baseline score, baseline patient diary average pain, index joint, Kellgren-Lawrence grade, and treatment group, and study site as a random effect. Missing data were handled with a multiple imputation strategy dependent on the reason for discontinuation.
Comparisons for other secondary endpoints were unadjusted. […] Safety assessments were summarized by treatment group as percentages of the treatment group population.

[3] = tested on: patients with OA of the knee or hip; test: Example 2: safety, including adjudication of joint safety events; format: in vivo, human
Source text: Key inclusion criteria were Western Ontario and McMaster Universities Osteoarthritis Index (WOMAC) Pain and Physical Function scores in the index joint; a Patient Global Assessment of OA (PGA-OA) score of fair, poor, or very poor; a history of insufficient pain relief or intolerance to acetaminophen, oral NSAID, and either tramadol or opioids (or unwilling to take opioids). […] Co-primary endpoints were change from baseline in WOMAC Pain, WOMAC Physical Function, and PGA-OA scores at week 24 compared with placebo. Three key secondary endpoints were: reduction in the WOMAC Pain subscale of 50%, at Week 24, WOMAC Pain subscale change from Baseline to Week 2, and weekly average pain score (based on daily diary) in the index joint change from Baseline to Week 1. Safety, including adjudication of joint safety events, was assessed.

NGF = NGF (Homo sapiens, UniProt P01138); conditions: cell culture models; cited from earlier work
[4] = tested on: patients with osteoarthritis (OA) of the knee or hip; conditions: for PGA-OA: LS Mean (SE) change from Baseline / PGA-OA: LS Mean Difference vs. NSAID (SE) / WOMAC Pain ≥30% reduction: % of patients / WOMAC Pain ≥30% reduction: number of patients / WOMAC Pain ≥70% reduction: % of patients / WOMAC Pain ≥70% reduction: number of patients / WOMAC Pain ≥90% reduction: % of patients / WOMAC Pain ≥90% reduction: number of patients / WOMAC Pain: LS Mean Difference vs. NSAID (SE) / WOMAC Physical Function: LS Mean (SE) change from Baseline / WOMAC Physical Function: LS Mean Difference vs. NSAID (SE) / WOMAC Pain: LS Mean (SE) change from Baseline / WOMAC Pain ≥50% reduction: % of patients / WOMAC Pain ≥50% reduction: number of patients: Week 16; for PGA-OA: LS Mean Difference vs. NSAID / PGA-OA: LS Mean change from Baseline / WOMAC Pain: LS Mean Difference vs. NSAID / WOMAC Pain: LS Mean change from Baseline / WOMAC Physical Function: LS Mean Difference vs. NSAID / WOMAC Physical Function: LS Mean change from Baseline: Week 56;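 for all read-outs here: SC doses every 8 weeks plus twice-daily oral study drug to Week 56, efficacy assessed in all randomized patients given at least one SC dose, by assigned arm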
Method: Patients received a total of seven SC injections, each separated by 8 weeks and daily oral (PO) study medication BID through Week 56.
The Intent-to-Treat (ITT) Population included all patients who were randomized and received at least one dose of SC study drug. This analysis set was primary for all efficacy endpoints, which were analyzed according to randomization assignment. The Safety Population included all patients who received at least one dose of SC study treatment. This analysis set was primary for all safety endpoints, which were analyzed according to treatment received.

[5] = both tanezumab regimens pooled (n=464)

Sequence of NGF (P01138 122-241): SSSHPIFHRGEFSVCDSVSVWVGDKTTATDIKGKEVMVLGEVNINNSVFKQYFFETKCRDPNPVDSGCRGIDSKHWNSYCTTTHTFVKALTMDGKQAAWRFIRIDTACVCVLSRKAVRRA

tanezumab: humanized immunoglobulin G Type 2 (IgG2) monoclonal antibody directed against human nerve growth factor (NGF); SEQ ID NOs: 9 or 11 and 10
events adjudicated as RPOA (types 1 and 2): % of group ([1]; 2.5 mg group): 2.2%
events adjudicated as RPOA (types 1 and 2): % of group ([1]; 2.5/5 mg group): 0.4%
adjudicated RPOA type 1 (accelerated joint space narrowing): n ([1]; both tanezumab regimens pooled): 4
adjudicated RPOA type 2 (damage or deterioration of the joint): n ([1]; both tanezumab regimens pooled): 2
tanezumab-treated patients with TJRs and adjudicated RPOA ([1]; both tanezumab regimens pooled): 2
adjudicated RPOA (type 1 or 2): % of tanezumab-treated patients [1, 5]: 1.3%
adjudicated RPOA (type 1 or 2): number of tanezumab-treated patients [1, 5]: 6
PGA-OA: Diff of LS Means vs placebo ([2]; 2.5 mg SC): −0.22
PGA-OA: LS Mean change from Baseline ([2]; 2.5 mg SC): −0.87
WOMAC Pain: Diff of LS Means vs placebo ([2]; 2.5 mg SC): −0.60
WOMAC Pain: LS Mean change from Baseline ([2]; 2.5 mg SC): −3.23
WOMAC Physical Function: Diff of LS Means vs placebo ([2]; 2.5 mg SC): −0.66
WOMAC Physical Function: LS Mean change from Baseline ([2]; 2.5 mg SC): −3.22
proportion of patients with ≥50% reduction from baseline in WOMAC Pain subscale ([2]; 2.5 mg SC): 54.5%
week 8 non-responders (<30% reduction in WOMAC Pain) transitioning to a moderate response at week 12 ([2]; 2.5 mg group (10/88)): 11.4%
week 8 non-responders (<30% reduction in WOMAC Pain) transitioning to a substantial response at week 12 ([2]; 2.5 mg group (14/88)): 15.9%
patients maintaining a moderate or substantial response from week 8 to week 12 ([2]; 2.5 mg group (138/231)): 59.7%
PGA-OA: Diff of LS Means vs placebo ([2]; 2.5/5 mg SC): −0.25
PGA-OA: LS Mean change from Baseline ([2]; 2.5/5 mg SC): −0.90
WOMAC Pain: Diff of LS Means vs placebo ([2]; 2.5/5 mg SC): −0.73
WOMAC Pain: LS Mean change from Baseline ([2]; 2.5/5 mg SC): −3.37
WOMAC Physical Function: Diff of LS Means vs placebo ([2]; 2.5/5 mg SC): −0.89
WOMAC Physical Function: LS Mean change from Baseline ([2]; 2.5/5 mg SC): −3.45
proportion of patients with ≥50% reduction from baseline in WOMAC Pain subscale ([2]; 2.5/5 mg SC): 57.1%
week 8 non-responders (<30% reduction in WOMAC Pain) transitioning to a substantial response at week 12 ([2]; 2.5/5 mg group (17/90)): 18.9%
week 8 non-responders (<30% reduction in WOMAC Pain) transitioning to a moderate response at week 12 ([2]; 2.5/5 mg group (20/90)): 22.2%
patients maintaining a moderate or substantial response from week 8 to week 12 ([2]; 2.5/5 mg group (138/233)): 59.2%
Pre-specified composite joint safety endpoint events: % of patients ([3]; 2.5 mg SC): 1.8%
TJRs: % of patients ([3]; 2.5 mg SC): 7.8%
Treatment-emergent AEs: % of patients ([3]; 2.5 mg SC): 53%
incidence of serious AEs ([3]; 2.5 mg SC): 2.8%
Pre-specified composite joint safety endpoint events: % of patients ([3]; 5 mg SC): 3.2%
TJRs: % of patients ([3]; 5 mg SC): 7.0%
Treatment-emergent AEs: % of patients ([3]; 5 mg SC): 57%
incidence of serious AEs ([3]; 5 mg SC): 3.2%
blocking of the activity of NGF (NGF): blocks the activity of NGF effectively
PGA-OA: LS Mean (SE) change from Baseline ([4]; 2.5 mg SC): −0.96 (0.04)
PGA-OA: LS Mean Difference vs. NSAID (SE) ([4]; 2.5 mg SC): −0.02 (0.04)
WOMAC Pain ≥30% reduction: % of patients ([4]; 2.5 mg SC): 71.8%
WOMAC Pain ≥30% reduction: number of patients ([4]; 2.5 mg SC): 718
WOMAC Pain ≥70% reduction: % of patients ([4]; 2.5 mg SC): 28.9%
WOMAC Pain ≥70% reduction: number of patients ([4]; 2.5 mg SC): 289
WOMAC Pain ≥90% reduction: % of patients ([4]; 2.5 mg SC): 10.3%
WOMAC Pain ≥90% reduction: number of patients ([4]; 2.5 mg SC): 103
WOMAC Pain: LS Mean Difference vs. NSAID (SE) ([4]; 2.5 mg SC): −0.15 (0.11)
WOMAC Physical Function: LS Mean (SE) change from Baseline ([4]; 2.5 mg SC): −3.27 (0.11)
WOMAC Physical Function: LS Mean Difference vs. NSAID (SE) ([4]; 2.5 mg SC): −0.19 (0.11)
WOMAC Pain: LS Mean (SE) change from Baseline ([4]; 2.5 mg SC, ITT, multiple imputation): −3.22 (0.11)
WOMAC Pain ≥50% reduction: % of patients ([4]; 2.5 mg SC, mixed BOCF/LOCF): 54.9%
WOMAC Pain ≥50% reduction: number of patients ([4]; 2.5 mg SC, mixed BOCF/LOCF): 549
PGA-OA: LS Mean Difference vs. NSAID ([4]; 2.5 mg SC): 0.01
PGA-OA: LS Mean change from Baseline ([4]; 2.5 mg SC): −0.65
WOMAC Pain: LS Mean Difference vs. NSAID ([4]; 2.5 mg SC): −0.02
WOMAC Pain: LS Mean change from Baseline ([4]; 2.5 mg SC): −2.44
WOMAC Physical Function: LS Mean Difference vs. NSAID ([4]; 2.5 mg SC): −0.05
WOMAC Physical Function: LS Mean change from Baseline ([4]; 2.5 mg SC): −2.45
PGA-OA: LS Mean (SE) change from Baseline ([4]; 5 mg SC): −0.97 (0.04)
PGA-OA: LS Mean Difference vs. NSAID (SE) ([4]; 5 mg SC): −0.04 (0.04)
WOMAC Pain ≥30% reduction: % of patients ([4]; 5 mg SC): 72.9%
WOMAC Pain ≥30% reduction: number of patients ([4]; 5 mg SC): 725
WOMAC Pain ≥50% reduction: % of patients ([4]; 5 mg SC): 56.5%
WOMAC Pain ≥50% reduction: number of patients ([4]; 5 mg SC): 562
WOMAC Pain ≥70% reduction: % of patients ([4]; 5 mg SC): 35.0%
WOMAC Pain ≥70% reduction: number of patients ([4]; 5 mg SC): 348
WOMAC Pain ≥90% reduction: % of patients ([4]; 5 mg SC): 12.7%
WOMAC Pain ≥90% reduction: number of patients ([4]; 5 mg SC): 126
WOMAC Pain: LS Mean (SE) change from Baseline ([4]; 5 mg SC): −3.33 (0.11)
WOMAC Pain: LS Mean Difference vs. NSAID (SE) ([4]; 5 mg SC): −0.26 (0.11)
WOMAC Physical Function: LS Mean (SE) change from Baseline ([4]; 5 mg SC): −3.39 (0.11)
WOMAC Physical Function: LS Mean Difference vs. NSAID (SE) ([4]; 5 mg SC): −0.31 (0.10)
PGA-OA: LS Mean Difference vs. NSAID ([4]; 5 mg SC): 0.06
PGA-OA: LS Mean change from Baseline ([4]; 5 mg SC): −0.60
WOMAC Pain: LS Mean Difference vs. NSAID ([4]; 5 mg SC): 0.05
WOMAC Pain: LS Mean change from Baseline ([4]; 5 mg SC): −2.37
WOMAC Physical Function: LS Mean Difference vs. NSAID ([4]; 5 mg SC): 0.05
WOMAC Physical Function: LS Mean change from Baseline ([4]; 5 mg SC): −2.36
